The test system of this test is L1210 leukemia ip in BDF1 mice, survival T/C. In words: NCI In Vivo Anticancer Drug Screen. Data for tumor model L1210 Leukemia (intraperitoneal) in B6D2F1 (BDF1) mice. To be noted: endpoint: mean survival time, higher = longer survival. In outline:
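Ratio derived from survival: compound-dosed mice over vehicle-dosed mice, all bearing a transplantable tumor.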

Setting [1] is: dose: 100.0 mg/kg/injection, schedule: Q04DX003 (ip), vehicle: saline with Tween-80.
Where [2] appears, read: dose: 200.0 mg/kg/injection, schedule: Q04DX003 (ip), vehicle: saline with Tween-80.
Where [3] appears, read: dose: 100.0 mg/kg/injection, schedule: Q01DX001 (ip), vehicle: other.
The mark [4] stands for this setting: dose: 200.0 mg/kg/injection, schedule: Q01DX001 (ip), vehicle: other.
[5] abbreviates: dose: 100.0 mg/kg/injection, schedule: Q01DX009 (ip), vehicle: Klucel (hydroxypropylcellulose) (HPC).
[6] abbreviates: dose: 100.0 mg/kg/injection, schedule: Q04DX003 (ip), vehicle: Klucel (hydroxypropylcellulose) (HPC).
Where [7] appears, read: dose: 200.0 mg/kg/injection, schedule: Q01DX009 (ip), vehicle: Klucel (hydroxypropylcellulose) (HPC).
[8] abbreviates: dose: 200.0 mg/kg/injection, schedule: Q04DX003 (ip), vehicle: Klucel (hydroxypropylcellulose) (HPC).
Where [9] appears, read: dose: 400.0 mg/kg/injection, schedule: Q01DX009 (ip), vehicle: Klucel (hydroxypropylcellulose) (HPC).
Setting [10] is: dose: 400.0 mg/kg/injection, schedule: Q04DX003 (ip), vehicle: Klucel (hydroxypropylcellulose) (HPC).
[11] abbreviates: dose: 100.0 mg/kg/injection, schedule: Q01DX001 (ip), vehicle: saline.
Setting [12] is: dose: 200.0 mg/kg/injection, schedule: Q01DX001 (ip), vehicle: saline.
[13] abbreviates: dose: 400.0 mg/kg/injection, schedule: Q01DX001 (ip), vehicle: saline.
Setting [14] is: dose: 400.0 mg/kg/injection, schedule: Q04DX003 (ip), vehicle: saline with Tween-80.
Setting [15] is: dose: 100.0 mg/kg/injection, schedule: Q04DX002 (ip), vehicle: saline with Tween-80.
[16] abbreviates: dose: 200.0 mg/kg/injection, schedule: Q04DX002 (ip), vehicle: saline with Tween-80.
Setting [17] is: dose: 400.0 mg/kg/injection, schedule: Q04DX002 (ip), vehicle: saline with Tween-80.

“And” between values parts separate entries of the source, which are not always exact repeats. Equal values may be shown once. Inconclusive results and toxic doses are left out.

Regarding `CCOC(=O)CC/C(=C/c1cccc2ccccc12)[N+](=O)[O-]`, the T/C was 105 % of control under setting [1] and 94 % of control under setting [2].

Consider `C1CCN(c2c3c(nc4nnnn24)CCC3)CC1`, for which the T/C was 98 % of control (dose: 5.0 mg/kg/injection, schedule: Q01DX001 (ip), vehicle: other); 96 % of control (dose: 10.0 mg/kg/injection, schedule: Q01DX001 (ip), vehicle: other); 98 % of control (dose: 20.0 mg/kg/injection, schedule: Q01DX001 (ip), vehicle: other); 110 % of control (dose: 40.0 mg/kg/injection, schedule: Q01DX001 (ip), vehicle: other); 96 % of control (dose: 80.0 mg/kg/injection, schedule: Q01DX001 (ip), vehicle: other); 96 % of control under setting [3]. Besides, the T/C under setting [4] was 96 % of control.

Regarding `COCCCN=C(N)c1ccc(NC(=O)c2ccc(C(=O)Nc3ccc(C(N)=NCCCOC)cc3)c(Cl)c2)cc1`, the T/C is 92 % of control (dose: 0.47 mg/kg/injection, schedule: Q01DX Z (ip), vehicle: saline); 91 % of control (dose: 0.94 mg/kg/injection, schedule: Q01DX Z (ip), vehicle: saline); 94 % of control (dose: 1.88 mg/kg/injection, schedule: Q01DX Z (ip), vehicle: saline); 111 % of control (dose: 3.75 mg/kg/injection, schedule: Q01DX Z (ip), vehicle: saline); 171 % of control (dose: 7.5 mg/kg/injection, schedule: Q01DX Z (ip), vehicle: saline); 103 % of control (dose: 7.5 mg/kg/injection, schedule: Q01DX Z (oral), vehicle: saline). Moreover, the T/C reads like this: (dose: 15.0 mg/kg/injection, schedule: Q01DX Z (ip), vehicle: saline) 89 % of control; (dose: 15.0 mg/kg/injection, schedule: Q01DX Z (oral), vehicle: saline) 111 % of control; (dose: 30.0 mg/kg/injection, schedule: Q01DX Z (oral), vehicle: saline) 94 % of control; (dose: 60.0 mg/kg/injection, schedule: Q01DX Z (oral), vehicle: saline) 102 % of control.

On to `CCCCN(C=O)c1ccccc1`, for which the T/C reads like this: under setting [5], 108 % of control; under setting [6], 97 % of control; under setting [7], 104 % of control; under setting [8], 103 % of control; under setting [9], 87 % of control; under setting [10], 97 % of control.

For the compound `c1ccc(C(NC(c2ccccc2)c2ccccc2)c2ccccc2)cc1`, the T/C reads like this: (dose: 50.0 mg/kg/injection, schedule: Q01DX001 (ip), vehicle: saline) 91 % of control; under setting [11], 97 % of control; under setting [12], 93 % of control; under setting [13], 97 % of control.

As to `CC(=O)OCC1OC(OC(C)=O)C(NC(=O)NCCCl)C(OC(C)=O)C1OC(C)=O` (stereo not drawn), the T/C is 97 % of control under setting [3]; 101 % of control under setting [4]; 97 % of control (dose: 400.0 mg/kg/injection, schedule: Q01DX001 (ip), vehicle: other).

For the compound `O=[N+]([O-])c1ccc(O)c(C2OCCCO2)c1`, the T/C reads like this: under setting [11], 101 % of control; under setting [12], 98 % of control; under setting [13], 101 % of control.

As for `O=C(OC1COC(OC(=O)c2ccc([N+](=O)[O-])cc2)C(OC(=O)c2ccc([N+](=O)[O-])cc2)C1OC(=O)c1ccc([N+](=O)[O-])cc1)c1ccc([N+](=O)[O-])cc1` (stereo not drawn), the T/C is 93 % of control under setting [11], 96 % of control under setting [12] and 96 % of control under setting [13].

Regarding `O=C1C(Br)=CC(Br)(Br)C=C1Br`, the T/C is 92 % of control under setting [1], 95 % of control under setting [2] and 93 % of control under setting [14].

For `CCCCN(CCCC)CC(O)c1cc(-c2ccc(C(F)(F)F)cc2)nc2c(Cl)cc(Cl)cc12` (stereo not drawn), the T/C is 100 % of control under setting [15], 92 % of control under setting [16] and 95 % of control under setting [17].

Consider `CC(C)N=C(N)CSS(=O)(=O)O`, for which the T/C is, setting by setting: (dose: 25.0 mg/kg/injection, schedule: Q04DX002 (ip), vehicle: Klucel (hydroxypropylcellulose) (HPC)) 101 % of control; (dose: 50.0 mg/kg/injection, schedule: Q04DX002 (ip), vehicle: Klucel (hydroxypropylcellulose) (HPC)) 97 % of control; (dose: 100.0 mg/kg/injection, schedule: Q04DX002 (ip), vehicle: Klucel (hydroxypropylcellulose) (HPC)) 101 % of control and 102 % of control.

Take `COc1ccc(C[As+](Cc2ccccc2)(Cc2ccc(OC)cc2)Cc2ccc(OC)cc2)cc1`: the T/C runs as follows: (dose: 5.0 mg/kg/injection, schedule: Q01DX001 (ip), vehicle: saline) 103 % of control; (dose: 10.0 mg/kg/injection, schedule: Q01DX001 (ip), vehicle: saline) 98 % of control; (dose: 20.0 mg/kg/injection, schedule: Q01DX001 (ip), vehicle: saline) 96 % of control.

For `O=C1c2c(O)cccc2C(Br)c2cccc(O)c21`, the T/C (dose: 100.0 mg/kg/injection, schedule: Q01DX001 (ip), vehicle: water) is 108 % of control; the T/C (dose: 100.0 mg/kg/injection, schedule: Q01DX009 (ip), vehicle: water) was 103 % of control; the T/C (dose: 200.0 mg/kg/injection, schedule: Q01DX001 (ip), vehicle: water) is 108 % of control; the T/C (dose: 200.0 mg/kg/injection, schedule: Q01DX009 (ip), vehicle: water) was 100 % of control; the T/C (dose: 300.0 mg/kg/injection, schedule: Q01DX001 (ip), vehicle: water) is 104 % of control; the T/C (dose: 400.0 mg/kg/injection, schedule: Q01DX009 (ip), vehicle: water) is 90 % of control.

Take `CCc1ccc([N+](=O)[O-])cc1`: the T/C (dose: 100.0 mg/kg/injection, schedule: Q01DX001 (ip), vehicle: carboxymethylcellulose (CMC)) was 95 % of control; the T/C (dose: 200.0 mg/kg/injection, schedule: Q01DX001 (ip), vehicle: carboxymethylcellulose (CMC)) is 103 % of control; the T/C (dose: 400.0 mg/kg/injection, schedule: Q01DX001 (ip), vehicle: carboxymethylcellulose (CMC)) is 97 % of control.

For the compound `CC(C)N(CCCOC(=O)c1ccc(N)cc1)C(C)C`, the T/C runs as follows: (dose: 25.0 mg/kg/injection, schedule: Q01DX009 (ip), vehicle: saline) 95 % of control; (dose: 50.0 mg/kg/injection, schedule: Q01DX009 (ip), vehicle: saline) 109 % of control; (dose: 100.0 mg/kg/injection, schedule: Q01DX009 (ip), vehicle: saline) 106 % of control; (dose: 100.0 mg/kg/injection, schedule: Q04DX003 (ip), vehicle: saline) 105 % of control.

Regarding `Cc1c(Cl)cccc1NC(=O)N1CCCC(C)C1` (stereo not drawn), the T/C was 94 % of control and 90 % of control (dose: 100.0 mg/kg/injection, schedule: Q01DX009 (ip), vehicle: saline with Tween-80); 96 % of control and 89 % of control under setting [15]; 96 % of control under setting [1]; 90 % of control (dose: 200.0 mg/kg/injection, schedule: Q01DX009 (ip), vehicle: saline with Tween-80); 86 % of control and 89 % of control under setting [16]; 102 % of control under setting [2]. Also, the T/C reads like this: (dose: 400.0 mg/kg/injection, schedule: Q01DX009 (ip), vehicle: saline with Tween-80) 93 % of control and 95 % of control; under setting [17], 93 % of control and 89 % of control; under setting [14], 97 % of control.

For the compound `CN(C)c1ccc2nc(C(=O)O)c(=O)n(C)c2c1`, the T/C was 101 % of control (dose: 100.0 mg/kg/injection, schedule: Q01DX001 (ip), vehicle: Klucel (hydroxypropylcellulose) (HPC)) and 97 % of control (dose: 200.0 mg/kg/injection, schedule: Q01DX001 (ip), vehicle: Klucel (hydroxypropylcellulose) (HPC)).

Consider `Cc1ccc(NC(=S)NC(=O)c2ccco2)cc1Cl`, for which the T/C is 101 % of control under setting [5]; 102 % of control under setting [6]; 106 % of control under setting [7]; 98 % of control under setting [8]; 102 % of control under setting [9]; 98 % of control under setting [10].

In the case of `O=Cc1cc([N+](=O)[O-])ccc1OCC(=O)O`, the T/C under setting [1] was 103 % of control, the T/C under setting [2] was 92 % of control and the T/C under setting [14] was 93 % of control.

Values taken from PubChem BioAssay AID248 (DTP/NCI, 2004).
